Data set [1] has as its system Inflammatory bowel disease patients. The conditions noted are these: human, in vivo. The source says:
Methods: Inflammatory bowel disease patients were recruited from 89 sites around the world. Inclusion criteria included normal renal function prior to commencing 5-ASA, ≧50% rise in creatinine any time after starting 5-ASA and physician opinion implicating 5-ASA strong enough to justify drug withdrawal. An adjudication panel identified definite and probable cases from structured case report forms. A genome wide association study was then undertaken with these cases and 4,109 disease controls.
Patient Recruitment: Individual study sites identified and recruited patients with 5-ASA induced nephrotoxicity. This study was open to recruitment at 118 UK research sites (73.8% of the 160 acute NHS trusts in the UK) as well as 45 international sites. In total 77 sites from the UK and 12 sites from outside the UK recruited one or more patients. The protocol was approved by the National Research Ethics Committee South West, Exeter, UK (10/H0203/76) and by all local research and development offices.
Inclusion criteria for patient recruitment required the presence of all of the following: • Patient administered any 5-ASA compound for treatment of inflammatory bowel disease (Crohn's disease, ulcerative colitis or IBD-unclassified) • Patient aged 6 or over • Normal creatinine or estimated glomerular filtration rate (eGFR) prior to first administration of 5-ASA or a creatinine that returned to the normal range after cessation of therapy • Greater than or equal to 50% rise in serum creatinine any time after introduction of 5-ASA • Physician opinion implicating 5-ASA strong enough to justify drug withdrawal, even if temporary
Cases were identified from recruiting sites through clinics and systematic searches of historical records and pathology databases. Gastroenterologists who replied to a 2001-2002 UK survey of 5-ASA induced nephrotoxicity were encouraged to submit cases^10. Clinicians who had submitted adverse drug reaction reports to the Medicines and Healthcare Products Regulatory Agency (MHRA) were invited to consider recruiting patients. Direct advertising to patients through the national patient newsletter was also undertaken. Cases were recruited who developed nephrotoxicity between 1988 and 2013 (73% of cases were diagnosed with renal injury after the year 2000).
Case adjudication: An anonymised case report form detailing demographic, clinical and drug history was completed with the aid of hospital records. Two 6 ml EDTA blood samples were taken at this visit for DNA extraction (BD Vacutainer, USA). The case report forms also requested creatinine levels and their corresponding dates at four time points: 1) at baseline (usually before 5-ASA commenced, but not exclusively), 2) at the recording of first abnormal creatinine value, 3) the worst creatinine value and 4) the best recovered creatinine value. After data collection, the last normal creatinine value before development of renal injury was also obtained, if it was available (92/151 cases), to enable better characterisation of the time period. If a renal biopsy was performed, the anonymised report was requested.
To assess patient eligibility for entry to this study, at least three gastroenterologists and at least one nephrologist reviewed each case for causality at a dedicated in-person adjudication panel meeting. For each case the evidence implicating the 5-ASA as the cause of nephrotoxicity was assessed using an adapted version of the validated Liverpool Adverse Drug Reaction Causality Assessment Tool^16. Patients were classified as definite, probable, possible or unlikely cases of 5-ASA nephrotoxicity based on the adjudicator's independent assessment that the nephrotoxicity was due to 5-ASA treatment. The panel discussed all cases before a final adjudication decision was reached. Only individuals classified as probable or definite cases of 5-ASA induced nephrotoxicity were taken forward for clinical and genetic analyses. […]

In the next data set the test system is patients. The conditions noted are these: in vivo; cited from earlier work.

Turning to `Nc1ccc(O)c(C(=O)O)c1` [5-ASA, 5-aminosalicylate], in data set [1], the “biopsies with acute interstitial inflammation” value is on record as 22%, the “biopsies with acute on chronic interstitial inflammation” value is given as 20%, the “biopsies with only chronic inflammatory changes in the interstitium” value was determined as 58% and the “cases with an abnormal creatinine within the first 12 months of treatment” value is given as 13%. In data set [1], the “cases with full recovery of renal function after drug withdrawal” value is 30%, the “definite cases: second episode of kidney injury when re-challenged with the agent” value was determined as 5 cases, the “patients requiring renal replacement therapy” value was 15 patients and the “renal biopsies with clear evidence of interstitial nephritis” value is reported as 57 patients. The “annual risk of nephrotoxicity” value with patients is 0.26%.

The values are drawn from patent US20160153045A1, “Biomarkers for Increased Risk of Drug-Induced 5-Aminosalicylate Nephrotoxicity” (Severe Adverse Event (SAE) Consortium, priority 2014, published 2016).
